Laboratory results taken from US8513276B2, “Imidazo[1,2-a]pyridine compounds for use in treating cancer” (Astex Therapeutics Limited, priority 2006, dated 2013).
Counter-ions that a name gives are not always drawn. Like-named read-outs stand apart in the source and are kept apart here.

How the values were obtained:
LP-1 cell line = test: Cell-based pERK ELISA in LP-1 multiple myeloma cells; settings: Homo sapiens
Experimental: LP-1 or JIM-1 multiple myeloma cells were seeded in 96 well plates at 1×10^6 cells/ml in 200 μl per well in serum free media. HUVEC cells were seeded at 2.5×10^5 cells/ml and allowed to recover for 24 h prior to transfer to serum free media. Cells were incubated for 16 h at 37° C. prior to the addition of a test compound for 30 minutes. Test compounds were administered at a 0.1% final DMSO concentration. Following this 30 minute incubation a FGF-1/Heparin (FGF-1 at 100 ng/ml final and Heparin at 100 ug/ml) mixture or VEGF^165 ([…]) was added to each of the wells for a further 5 minutes. The media was removed and 50 ul ERK ELISA lysis buffer (R and D Systems DuoSet ELISA for pERK and Total ERK #DYC-1940E, DYC-1018E) added. ELISA plates and standards were prepared according to the standard DuoSet protocols and the relative amounts of pERK to total ERK in each sample calculated according to the standard curve.
In particular, compounds of the invention were tested against the LP-1 cell line (DSMZ no.: ACC 41) derived from human multiple myeloma.

FGFR3 = biological target: T1, FGFR3 (Homo sapiens, UniProt P22607); test: FGFR3 in vitro kinase inhibitory activity assay (TRF); type: biochemical
T1 construct: Enzymes (from Upstate) were prepared at 2× final concentration in 1× kinase assay buffer; purchased Upstate
Experimental: Enzymes (from Upstate) were prepared at 2× final concentration in 1× kinase assay buffer (as described below). Enzymes were then incubated with test compounds, biotinylated Flt3 substrate (biotin—DNEYFYV) (Cell Signalling Technology Inc.) and ATP. The reaction was allowed to proceed for 3 hours (FGFR3) or 2.5 hrs (PDGFR-beta) at room temperature on a plate shaker at 900 rpm before being stopped with 20 μl of 35 mM EDTA, pH 8 (FGFR3) or 55 mM EDTA, pH 8 (PDGFR-beta). Twenty μl of 5× detection mix (50 mM HEPES pH 7.5, 0.1% BSA, 2 nM Eu-anti-pY (PY20) (PerkinElmer) 15 nM SA-XL665 (Cisbio) for FGFR3 and 50 mM HEPES, pH 7.5, 0.5 M KF, 0.1% BSA, 11.34 nM Eu-anti-pY (PT66) (PerkinEimer), 94 nM SA-XL665 (Cisbio) for PDGFR-beta) was then added to each well and the plate sealed and incubated at room temperature for one hour on a plate shaker at 900 rpm. The plate was then read on a Packard Fusion plate reader in TRF mode.
Kinase Assay buffers were:
A: 50 mM HEPES pH 7.5, 6 mM MnCl2, 1 mM DTT, 0.1% TritonX-100

[1] = LP-1 cell line, given as a bound, read-out: IC50 in LP-1 pERK ELISA
[2] = given as a bound, read-out: IC50 in the FGFR3 assay
[3] = LP-1 cells, FGF-1/heparin stimulation, pERK relative to total ERK, read-out: LP-1 pERK ELISA
[4] = in vitro kinase assay, 8 μM ATP, read-out: FGFR3 IC50

T1 sequence (P22607 23-806): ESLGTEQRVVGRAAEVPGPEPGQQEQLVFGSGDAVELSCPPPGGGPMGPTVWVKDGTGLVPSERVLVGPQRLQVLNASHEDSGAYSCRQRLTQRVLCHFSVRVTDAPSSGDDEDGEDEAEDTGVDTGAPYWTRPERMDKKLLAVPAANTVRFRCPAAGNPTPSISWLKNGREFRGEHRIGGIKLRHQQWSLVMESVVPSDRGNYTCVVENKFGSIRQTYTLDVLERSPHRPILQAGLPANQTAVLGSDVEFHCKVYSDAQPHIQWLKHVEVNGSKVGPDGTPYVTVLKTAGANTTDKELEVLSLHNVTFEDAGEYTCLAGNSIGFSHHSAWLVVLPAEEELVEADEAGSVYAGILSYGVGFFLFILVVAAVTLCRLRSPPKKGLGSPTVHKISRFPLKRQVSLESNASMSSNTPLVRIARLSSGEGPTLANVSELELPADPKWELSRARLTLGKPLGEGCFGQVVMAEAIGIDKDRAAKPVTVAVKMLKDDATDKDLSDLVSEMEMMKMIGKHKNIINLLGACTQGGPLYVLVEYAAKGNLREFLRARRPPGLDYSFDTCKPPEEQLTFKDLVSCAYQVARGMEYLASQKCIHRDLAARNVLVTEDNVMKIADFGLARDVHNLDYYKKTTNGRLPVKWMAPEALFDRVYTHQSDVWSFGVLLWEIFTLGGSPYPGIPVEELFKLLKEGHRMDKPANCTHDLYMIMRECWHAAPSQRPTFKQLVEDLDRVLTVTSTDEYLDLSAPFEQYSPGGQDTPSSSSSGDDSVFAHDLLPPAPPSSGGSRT

Q: How did the IC50 (LP-1 cell line; [1]) turn out when `c1cc(Nc2nncs2)cc(-c2cnn3cc(-c4ccncc4)cnc23)c1` [Example 17, [3-(6-Pyridin-4-yl-pyrazolo[1,5-a]pyrimidin-3-yl)-phenyl]-[1,3,4]thiadiazol-2-yl-amine] was run?
A: < 1000 nM

Q: And the IC50 (FGFR3; [2])?
A: < 1000 nM

Q: With `CNC(=O)c1cccc(-c2ccn3c(-c4cccc(Nc5nncs5)c4)cnc3c2)c1` [Example 30, N-Methyl-3-{3-[3-([1,3,4]thiadiazol-2-ylamino)-phenyl]-imidazo[1,2-a]pyridin-7-yl}-benzamide Hydrochloride] as the molecule, how does the IC50 (LP-1 cell line; [1]) read?
A: < 1000 nM

Q: And the IC50 (FGFR3; [2])?
A: < 1000 nM

Q: What does the source list for `c1cc(Nc2nncs2)cc(-c2cnc3cc(N4CCCCC4)ccn23)c1` [Example 24, [3-(7-Piperidin-1-yl-imidazo[1,2-a]pyridin-3-yl)-phenyl]-[1,3,4]thiadiazol-2-yl-amine]?
A: IC50 (LP-1 cell line; [1]): < 1000 nM; IC50 (FGFR3; [2]): < 1000 nM

Q: With `Nc1cccc(-c2ccn3c(-c4cccc(Nc5nncs5)c4)cnc3c2)c1` [Example 32, {3-[7-(3-Amino-phenyl)-imidazo[1,2-a]pyridin-3-yl]-phenyl}-[1,3,4]thiadiazol-2-yl-amine Hydrochloride] as the molecule, how does the IC50 (LP-1 cell line; [1]) read?
A: < 1000 nM

Q: What about the IC50 (FGFR3; [2]) of the same molecule?
A: < 1000 nM

Q: For `O=C1CN(Cc2cccc(-c3ccn4c(-c5cccc(Nc6nncs6)c5)cnc4c3)c2)CCN1` [Example 28, 4-(3-{3-[3-([1,3,4]Thiadiazol-2-ylamino)-phenyl]-imidazo[1,2-a]pyridin-7-yl}-benzyl)-piperazin-2-one Formate], which IC50 (LP-1 cell line; [1]) is on record?
A: < 1000 nM

Q: And the IC50 (FGFR3; [2])?
A: < 1000 nM

Q: How did the IC50 (LP-1 cell line; [1]) turn out when `Fc1ccc(-c2ccc3c(-c4cccc(Nc5nncs5)c4)cnn3c2)cc1` [Example 12, {3-[6-(4-Fluoro-phenyl)-pyrazolo[1,5-a]pyridin-3-yl]-phenyl}-[1,3,4]thiadiazol-2-yl-amine] was run?
A: < 1000 nM

Q: What about the IC50 (FGFR3; [2]) of the same molecule?
A: < 1000 nM

Q: How did the IC50 (LP-1 cell line; [1]) turn out when `Cn1nnc(-c2ccn3c(-c4cccc(Nc5nncs5)c4)cnc3c2)n1` [Example 43, {3-[7-(2-Methyl-2H-tetrazol-5-yl)-imidazo[1,2-a]pyridin-3-yl]phenyl}-[1,3,4]thiadiazol-2-yl-amine] was run?
A: < 1000 nM

Q: What about the IC50 (LP-1 cell line; [3]) of the same molecule?
A: 140 nM

Q: And the IC50 (FGFR3; [2])?
A: < 1000 nM

Q: And the IC50 (FGFR3; [4])?
A: 33.9 nM

Q: `c1cc(Nc2nncs2)cc(-c2cnc3cc(-c4ccc5c(c4)OCO5)ccn23)c1` [Example 20, [3-(7-Benzo[1,3]dioxol-5-yl-imidazo[1,2-a]pyridin-3-yl)-phenyl]-[1,3,4]thiadiazol-2-yl-amine Formate] was tested. Which IC50 (LP-1 cell line; [1]) did it give?
A: < 1000 nM

Q: What about the IC50 (FGFR3; [2]) of the same molecule?
A: < 1000 nM

Q: Which results are given for `Fc1ccc(-c2cnc3c(-c4cncc(Nc5nncs5)c4)cnn3c2)cc1` [Example 25, {5-[6-(4-Fluoro-phenyl)-pyrazolo[1,5-a]pyrimidin-3-yl]-pyridin-3-yl}-[1,3,4]thiadiazol-2-yl-amine]?
A: IC50 (LP-1 cell line; [1]): < 1000 nM; IC50 (FGFR3; [2]): < 1000 nM

Q: With `Cn1cc(-c2ccn3c(-c4cccc(Nc5nncs5)c4)cnc3c2)cn1` [Example 14, {3-[7-(1-Methyl-1H-pyrazol-4-yl)-imidazo[1,2-a]pyridin-3-yl]-phenyl}-[1,3,4]thiadiazol-2-yl-amine] as the molecule, how does the IC50 (LP-1 cell line; [1]) read?
A: < 1000 nM

Q: And the IC50 (LP-1 cell line; [3])?
A: 8.5 nM

Q: And the IC50 (FGFR3; [2])?
A: < 1000 nM

Q: What about the IC50 (FGFR3; [4]) of the same molecule?
A: 16 nM

Q: Which results are given for `Fc1ccc(-c2cnc3c(-c4cccc(Nc5nncs5)c4)cnn3c2)cc1` [Example 10, {3-[6-(4-Fluoro-phenyl)-pyrazolo[1,5-a]pyrimidin-3-yl]-phenyl}-[1,3,4]thiadiazol-2-yl-amine]?
A: IC50 (LP-1 cell line; [1]): < 1000 nM; IC50 (LP-1 cell line; [3]): 39 nM; IC50 (FGFR3; [2]): < 1000 nM; IC50 (FGFR3; [4]): 4.82 nM

Q: Which IC50 (LP-1 cell line; [1]) does the source give for `Clc1ccn2c(-c3cccc(Nc4nncs4)c3)cnc2c1` [the starting material of Procedure A4c, [3-(7-Chloro-imidazo[1,2-a]pyridin-3-yl)-phenyl]-[1,3,4]thiadiazol-2-yl-amine] here?
A: < 1000 nM

Q: And the IC50 (FGFR3; [2])?
A: < 1000 nM

Q: With `c1cc(CN2CCOCC2)cc(-c2ccn3c(-c4cccc(Nc5nncs5)c4)cnc3c2)c1` [Example 2] as the molecule, how does the IC50 (LP-1 cell line; [1]) read?
A: < 1000 nM

Q: And the IC50 (FGFR3; [2])?
A: < 1000 nM

Q: For `c1cc(Nc2nncs2)cc(-c2cnn3cc(-c4cnccn4)cnc23)c1` [Example 18, [3-(6-Pyrazin-2-yl-pyrazolo[1,5-a]pyrimidin-3-yl)-phenyl]-[1,3,4]thiadiazol-2-yl-amine], which IC50 (LP-1 cell line; [1]) is on record?
A: < 1000 nM

Q: And the IC50 (FGFR3; [2])?
A: < 1000 nM
